Key:
[1] = target: pseudo-kinase domain (JH2, amino-acids 536-812) of human Wild Type JAK2 (Homo sapiens (Human), UniProt O60674, F794H/W659A/W777A); assay: JAK2 LanthaScreen JH2-WT Binding Assay; conditions: JAK2 JH2-WT 0.145 nM, 50 nM tracer, 1 hour at 25° C.; read-out: JH2 BIND WT IC50
Outline: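 Biotinylated His-Avi-tagged JH2 construct carrying W659A/W777A/F794H surface mutations, 0.145 nM, incubated 1 h at 25° C with compound, 50 nM fluorescent JH2 tracer and 0.25 nM streptavidin-Tb in pH 7.5 Tris buffer. Non-specific binding defined with 2 mM ATP. TR-FRET read; IC50 from four-parameter fit.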

[2] = target: pseudo-kinase domain (JH2, amino-acids 536-812) of human V617F mutant JAK2 (Homo sapiens (Human), UniProt O60674, F794H/V617F/W659A/W777A); assay: JAK2 LanthaScreen JH2-V617F Binding Assay; conditions: JAK2 JH2-V617F 0.26 nM, 50 nM tracer, 1 hour at 25° C.; read-out: JH2 BIND V617F IC50
Outline: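 Competition of compounds with a fluorescent tracer (50 nM) for the biotinylated domain (0.26 nM), detected via streptavidin-Tb (0.25 nM) after 1 h at 25° C in pH 7.5 Tris buffer containing glycerol, BSA and Brij-35. ATP at 2 mM gave background. IC50 by four-parameter fit.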

[3] = target: catalytic domain (JH1, amino acids 808-1132) of human JAK2 (Homo sapiens (Human), UniProt O60674); assay: JAK2 HTRF Enzyme Activity Assay; assay type: biochemical; conditions: JAK2 0.015 nM, ATP (30 μM or 1 mM), 60 minutes at 25° C.
[4] = target: catalytic domain (JH1, amino acids 826-1132) of human JAK2 (Homo sapiens (Human), UniProt O60674); assay: JAK2 LanthaScreen JH1 Binding Assay; conditions: JAK2 JH1 1.5 nM, 50 nM tracer, 2 hours at 25° C.; read-out: JH1 BIND IC50
Outline: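 FLAG-tagged biotinylated JAK2 JH1 (1.5 nM) incubated with compounds, 50 nM fluorescent tracer and 0.5 nM streptavidin-Tb in Tris pH 7.5 buffer with MgCl2, BSA, DTT, 2 h at 25 °C.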

pseudo-kinase domain (JH2, amino-acids 536-812) of human Wild Type JAK2, sequence (O60674 536-812 W659A/W777A/F794H): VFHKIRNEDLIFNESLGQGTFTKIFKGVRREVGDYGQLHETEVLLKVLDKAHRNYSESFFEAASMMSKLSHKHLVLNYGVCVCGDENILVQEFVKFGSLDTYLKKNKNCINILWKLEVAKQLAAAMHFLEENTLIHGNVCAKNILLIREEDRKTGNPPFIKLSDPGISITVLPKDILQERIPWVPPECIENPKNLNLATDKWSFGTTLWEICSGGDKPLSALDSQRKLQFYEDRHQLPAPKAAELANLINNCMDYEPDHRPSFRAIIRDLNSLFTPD
catalytic domain (JH1, amino acids 808-1132) of human JAK2, sequence (O60674 808-1132): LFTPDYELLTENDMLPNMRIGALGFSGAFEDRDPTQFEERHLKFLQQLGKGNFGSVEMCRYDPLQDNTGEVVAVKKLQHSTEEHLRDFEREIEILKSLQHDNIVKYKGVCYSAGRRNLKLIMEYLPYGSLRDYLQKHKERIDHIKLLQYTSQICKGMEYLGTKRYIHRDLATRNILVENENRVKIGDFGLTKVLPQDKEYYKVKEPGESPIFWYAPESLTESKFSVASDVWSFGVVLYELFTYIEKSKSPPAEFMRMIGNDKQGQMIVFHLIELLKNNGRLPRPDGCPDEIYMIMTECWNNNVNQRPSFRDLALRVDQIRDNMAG
catalytic domain (JH1, amino acids 826-1132) of human JAK2, sequence (O60674 826-1132): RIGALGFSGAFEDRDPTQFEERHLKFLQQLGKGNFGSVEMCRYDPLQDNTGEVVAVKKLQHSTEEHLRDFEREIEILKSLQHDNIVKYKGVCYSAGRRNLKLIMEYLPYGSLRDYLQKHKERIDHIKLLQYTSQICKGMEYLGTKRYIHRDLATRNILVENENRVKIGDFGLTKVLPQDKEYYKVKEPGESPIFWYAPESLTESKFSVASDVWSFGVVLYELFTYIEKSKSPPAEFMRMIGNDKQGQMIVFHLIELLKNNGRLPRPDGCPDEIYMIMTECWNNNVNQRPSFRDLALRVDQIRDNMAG
pseudo-kinase domain (JH2, amino-acids 536-812) of human V617F mutant JAK2, sequence (O60674 536-812 V617F/W659A/W777A/F794H): as the sequence (O60674 536-812 W659A/W777A/F794H) above, with V82F counted along it

Row | SMILES | IC50 [1] | IC50 [2] | IC50 [3] | IC50 [4]
1 | Cn1c(=O)c(-c2ccc(C(=O)O)cc2)cc2c3cc(-c4ccc(CN5CCC(S(C)(=O)=O)CC5)cc4)[nH]c3ncc21 [Example 14, 4-(6-Methyl-2-(4-((4-(methylsulfonyl)piperidin-1-yl)methyl)phenyl)-7-oxo-6,7-dihydro-3H-pyrrolo[3,2-f][1,7]naphthyridin-8-yl)benzoic acid] | ≤ 100 nM | ≤ 100 nM | 100 to 500 nM | 100 to 500 nM
2 | CN(C)C(=O)c1cc2c3c(-c4ccc5c(cnn5C)c4)c(-c4cnn(C)c4)[nH]c3ncc2n(C)c1=O [Example 43, N,N,6-trimethyl-1-(1-methyl-1H-indazol-5-yl)-2-(1-methyl-1H-pyrazol-4-yl)-7-oxo-6,7-dihydro-3H-pyrrolo[3,2-f][1,7]naphthyridine-8-carboxamide] | ≤ 100 nM | ≤ 100 nM | 1000 to 10000 nM | 1000 to 10000 nM
3 | Cn1nccc1-c1cc2c(cnc3[nH]c(-c4ccc(CN5CCC(S(C)(=O)=O)CC5)cc4)cc32)[nH]c1=O [Example 4, 8-(1-Methyl-1H-pyrazol-5-yl)-2-(4-((4-(methylsulfonyl)piperidin-1-yl)methyl)phenyl)-3,6-dihydro-7H-pyrrolo[3,2-f][1,7]naphthyridin-7-one] | 1000 to 10000 nM | 1000 to 10000 nM | 1000 to 10000 nM | 1000 to 10000 nM
4 | Cc1cc(-c2c(-c3ccc(NC4CCOCC4)cc3)c3c4cc(-c5cnn(C)c5)[nH]c4ncc3n(C)c2=O)on1 [Example 30, 6-Methyl-2-(1-methyl-1H-pyrazol-4-yl)-8-(3-methylisoxazol-5-yl)-9-(4-((tetrahydro-2H-pyran-4-yl)amino)phenyl)-3,6-dihydro-7H-pyrrolo[3,2-f][1,7]naphthyridin-7-one] | ≤ 100 nM | ≤ 100 nM | 500 to 1000 nM | 500 to 1000 nM
5 | CCn1c(=O)c(-c2ccc(C(=O)O)cc2)cc2c3cc(-c4ccc(CN5CCC(S(C)(=O)=O)CC5)cc4)[nH]c3ncc21 [Example 15, 4-(6-Ethyl-2-(4-((4-(methylsulfonyl)piperidin-1-yl)methyl)phenyl)-7-oxo-6,7-dihydro-3H-pyrrolo[3,2-f][1,7]naphthyridin-8-yl)benzoic acid] | 500 to 1000 nM | 1000 to 10000 nM | 1000 to 10000 nM | 1000 to 10000 nM
6 | COC1CCC(c2cc(=O)n(C)c3cnc4[nH]c(-c5cnn(C)c5)cc4c23)CC1 (centres unmarked) [Example 24, 9-(4-methoxycyclohexyl)-6-methyl-2-(1-methyl-1H-pyrazol-4-yl)-3,6-dihydro-7H-pyrrolo[3,2-f][1,7]naphthyridin-7-one] | ≤ 100 nM | ≤ 100 nM | ≤ 100 nM | ≤ 100 nM
7 | CS(=O)(=O)C1CCN(Cc2ccc(-c3cc4c(ncc5[nH]c(=O)c(-c6ccc(C(=O)O)cc6)cc54)[nH]3)cc2)CC1 [Example 2, 4-(2-(4-((4-(Methylsulfonyl)piperidin-1-yl)methyl)phenyl)-7-oxo-6,7-dihydro-3H-pyrrolo[3,2-f][1,7]naphthyridin-8-yl)benzoic acid] | ≤ 100 nM | ≤ 100 nM | > 10000 nM | > 10000 nM
8 | Cc1c(-c2ccc(C(=O)O)cc2)c(=O)[nH]c2cnc3[nH]c(-c4ccc(CN5CCC(S(C)(=O)=O)CC5)cc4)cc3c12 [Example 6, 4-(9-Methyl-2-(4-((4-(methylsulfonyl)piperidin-1-yl)methyl)phenyl)-7-oxo-6,7-dihydro-3H-pyrrolo[3,2-f][1,7]naphthyridin-8-yl)benzoic acid] | ≤ 100 nM | ≤ 100 nM | > 10000 nM | > 10000 nM
